Here are results for 32 compounds from patent US20260327221A1, “INHIBITORS OF CYCLIC GMP-AMP SYNTHASE AND USES THEREOF” (Ventus Therapeutics U.S., Inc., priority 2023, published 2026).

The target of the assay is hcGAS (Homo sapiens, UniProt Q8N884). The assay can be described thus: hcGAS LCMS assay (direct measurement of cGAMP production by LC/MS). It counts as biochemical. On the procedure:
cGAS catalyzes the cyclization of ATP and GTP to produce cGAMP, which is the activating ligand of STING. Human cGAS (hcGAS) inhibition can thus be quantified by measuring how much cGAMP is formed either indirectly, by monitoring ATP-depletion as in the hcGAS Kinase-Glo assay (as described below), or directly, such as using the hcGAS LCMS assay (as described below).
2. hGAS LCMS Assay Conditions
Compounds were tested for their hcGAS inhibition activity using direct measurement of cGAMP production by LC/MS. Briefly, compounds were incubated with enzyme and substrates for 4 hours (see Table C), before the reaction was stopped with 3 volumes of 70/30 Acetonitrile/H2O mix containing 0.15 uM cGAMP-^13C10^15N5 as internal standard and mixed for 5 mmn. After centrifugation (3700 rpm, […], […]), 100 uL of each reaction was collected and mixed to equal volume of acetonitrile (MeCN). Samples were then analyzed on Qexactive (Column: XBridge BEH Amide Column, 130 Å, 3.5 μm, 3 mm×50 mm. Mobile phase A: 10 mM Ammonium acetate in 95/5 H2O/MeCN (0.5% DMSO), Mobile phase B: MeCN (0.5% DMSO).
The results of the assay, expressed as IC50 values, are reported in Table D with the following designations: A represents an IC50 value <0.005 μM (with A1 representing an IC50 value <0.0005 μM, A2 representing an IC50 value ≥0.0005 μM and <0.001 μM, and A3 representing an IC50 value ≥0.001 μM and <0.005 μM); B represents an IC50 value ≥0.005 μM and <0.02 μM; C represents an IC50 value ≥0.02 μM and <0.06 μM; and D represents an IC50 value ≥0.06 μM.

Where [1] appears, read: 4 h incubation with enzyme and substrates, cGAMP production by LC/MS, class symbols, read-out: hcGAS LCMS IC50.

SMILES strings stand for the structures. Like-named read-outs stand apart in the source and are kept apart here.

hcGAS, sequence (Q8N884 whole entry): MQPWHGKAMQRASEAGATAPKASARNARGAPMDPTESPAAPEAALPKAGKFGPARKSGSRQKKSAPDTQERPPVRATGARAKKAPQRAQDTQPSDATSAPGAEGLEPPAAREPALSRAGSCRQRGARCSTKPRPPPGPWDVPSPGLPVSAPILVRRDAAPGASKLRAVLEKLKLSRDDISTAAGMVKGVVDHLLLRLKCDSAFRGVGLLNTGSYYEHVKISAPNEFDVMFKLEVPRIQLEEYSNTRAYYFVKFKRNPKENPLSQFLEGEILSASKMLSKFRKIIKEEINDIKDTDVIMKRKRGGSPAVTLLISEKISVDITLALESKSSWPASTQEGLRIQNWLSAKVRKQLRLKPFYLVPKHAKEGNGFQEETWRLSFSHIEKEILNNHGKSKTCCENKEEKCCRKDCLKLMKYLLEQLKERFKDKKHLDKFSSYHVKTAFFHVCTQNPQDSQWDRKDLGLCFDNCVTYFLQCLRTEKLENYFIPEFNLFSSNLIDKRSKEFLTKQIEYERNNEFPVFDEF

As to `COc1cccc(OC)c1-c1cc(C(=O)Nc2nnc(-n3nccc3N)s2)oc(=O)c1OCC(CO)N1CCOCC1` (racemic) [Rac-85, N-(5-(5-amino-1H-pyrazol-1-yl)-1,3,4-thiadiazol-2-yl)-4-(2,6-dimethoxyphenyl)-3-(3-hydroxy-2-morpholinopropoxy)-2-oxo-2H-pyran-6-carboxamide], the IC50 – broadly, the point on the concentration scale where inhibition reaches its midpoint – under setting [1] was in the range of 1 to 5 nM.

`COc1cccc(OC)c1-c1cc(C(=O)Nc2nnc(-n3nccc3N)s2)oc(=O)c1OC(CO)CN1CCOCC1` (racemic) [Rac-87, N-(5-(5-amino-1H-pyrazol-1-yl)-1,3,4-thiadiazol-2-yl)-4-(2,6-dimethoxyphenyl)-3-((1-hydroxy-3-morpholinopropan-2-yl)oxy)-2-oxo-2H-pyran-6-carboxamide]: the IC50 under setting [1] was 1 to 5 nM.

As for `COc1cccc(OC)c1-c1cc(C(=O)Nc2nnc(-n3nccc3N)s2)oc(=O)c1O[C@@H]1CC[C@@H](O)C1` (relative stereo) [64A*/B*], the IC50 under setting [1] is 0.5 to 1 nM.

Regarding `COc1cccc(OC)c1-c1cc(C(=O)Nc2nnc(-n3nccc3N)s2)oc(=O)c1O[C@@H]1CC[C@H](O)C1` (relative stereo) [64C*/D*], the concentration for half-maximal inhibition (IC50) under setting [1] was 0.5 to 1 nM.

Turning to `COc1cccc(OC)c1-c1cc(C(=O)Nc2nnc(-n3nccc3N)s2)oc(=O)c1O[C@H]1CCC[C@@H]1O` (single isomer, unassigned) [71A*], the IC50 under setting [1] lay in the range of 0.5 to 1 nM.

`COc1cccc(OC)c1-c1cc(C(=O)Nc2nnc(-n3nccc3N)s2)oc(=O)c1O[C@@H]1CCC[C@H]1O` (single isomer, unassigned) [71B*]: under setting [1], the IC50 was in the range of 0.5 to 1 nM.

Turning to `COc1cccc(OC)c1-c1cc(C(=O)Nc2nnc(-n3nccc3N)s2)oc(=O)c1O[C@@H]1CCC[C@@H](O)C1` (single isomer, unassigned) [109A*], the IC50 under setting [1] fell in the range of 1 to 5 nM.

`COc1cccc(OC)c1-c1cc(C(=O)Nc2nnc(-n3nccc3N)s2)oc(=O)c1O[C@H]1CCC[C@H](O)C1` (single isomer, unassigned) [109B*]: the IC50 under setting [1] is 0.5 to 1 nM.

Turning to `COc1cccc(OC)c1-c1cc(C(=O)Nc2nnc(-n3nccc3N)s2)oc(=O)c1O[C@@H]1CCCC[C@H]1O` (single isomer, unassigned) [110A*], under setting [1], the IC50 is 1 to 5 nM.

`COc1cccc(OC)c1-c1cc(C(=O)Nc2nnc(-n3nccc3N)s2)oc(=O)c1O[C@H]1CCCC[C@@H]1O` (single isomer, unassigned) [110B*]: the IC50 under setting [1] was 0.5 to 1 nM.

For `COc1cccnc1-c1cc(C(=O)Nc2nnc(-n3nccc3N)s2)oc(=O)c1O[C@@H]1CC[C@H](O)C1` (single isomer, unassigned) [111A*], under setting [1], the IC50 fell in the range of 0.5 to 1 nM.

For the compound `COc1cccnc1-c1cc(C(=O)Nc2nnc(-n3nccc3N)s2)oc(=O)c1O[C@H]1CC[C@@H](O)C1` (single isomer, unassigned) [111B*], the IC50 under setting [1] was in the range of 0.5 to 1 nM.

As to `COc1cccnc1-c1cc(C(=O)Nc2nnc(-n3nccc3N)s2)oc(=O)c1O[C@@H]1CC[C@@H](O)C1` (single isomer, unassigned) [112A*], the IC50 under setting [1] was in the range of 1 to 5 nM.

As for `COc1cccnc1-c1cc(C(=O)Nc2nnc(-n3nccc3N)s2)oc(=O)c1O[C@H]1CC[C@H](O)C1` (single isomer, unassigned) [112B*], the IC50 under setting [1] was in the range of 1 to 5 nM.

In the case of `COc1cccnc1-c1cc(C(=O)Nc2nnc(-n3nccc3N)s2)oc(=O)c1O[C@@H]1CCC[C@@H](OC)C1` (single isomer, unassigned) [113A*], under setting [1], the IC50 was in the range of 1 to 5 nM.

With `COc1cccnc1-c1cc(C(=O)Nc2nnc(-n3nccc3N)s2)oc(=O)c1O[C@H]1CCC[C@H](OC)C1` (single isomer, unassigned) [113B*], the IC50 under setting [1] is 0.5 to 1 nM.

In the case of `COc1cccnc1-c1cc(C(=O)Nc2nnc(-n3nccc3N)s2)oc(=O)c1O[C@H]1CCC[C@@H](OC)C1` (single isomer, unassigned) [113C*], the IC50 under setting [1] was ≥ 60 nM.

Take `COc1cccnc1-c1cc(C(=O)Nc2nnc(-n3nccc3N)s2)oc(=O)c1O[C@@H]1CCC[C@H](OC)C1` (single isomer, unassigned) [113D*]: under setting [1], the IC50 was in the range of 5 to 20 nM.

Take `COCCOc1c(-c2c(Cl)cccc2OC)cc(C(=O)Nc2nnc(-n3nccc3N)s2)oc1=O` (single isomer, unassigned) [Compound 15A*, (Ra)—N-(5-(5-amino-1H-pyrazol-1-yl)-1,3,4-thiadiazol-2-yl)-4-(2-chloro-6-methoxyphenyl)-3-(2-methoxyethoxy)-2-oxo-2H-pyran-6-carboxamide]: under setting [1], the IC50 is < 0.5 nM.

`COCCOc1c(-c2c(Cl)cccc2OC)cc(C(=O)Nc2nnc(-n3nccc3N)s2)oc1=O` (single isomer, unassigned) [Compound 15B*, (Sa)-N-(5-(5-amino-1H-pyrazol-1-yl)-1,3,4-thiadiazol-2-yl)-4-(2-chloro-6-methoxyphenyl)-3-(2-methoxyethoxy)-2-oxo-2H-pyran-6-carboxamide]: under setting [1], the IC50 is < 0.5 nM.

Consider `COCCOc1c(-c2c(C)cccc2C#N)cc(C(=O)Nc2nnc(-n3nccc3N)s2)oc1=O` (single isomer, unassigned) [Compound 24A*, (Ra)—N-(5-(5-amino-1H-pyrazol-1-yl)-1,3,4-thiadiazol-2-yl)-4-(2-cyano-6-methylphenyl)-3-(2-methoxyethoxy)-2-oxo-2H-pyran-6-carboxamide], for which the IC50 was < 0.5 nM under setting [1] and < 0.5 nM (hcGAS 0.5 nM, ATP 100 μM, GTP 100 μM, dsDNA 25 nM, pH 7.4, 4 h incubation, read-out: hcGAS inhibition IC50 (activity class, Table D)).

As for `COCCOc1c(-c2c(C)cccc2C#N)cc(C(=O)Nc2nnc(-n3nccc3N)s2)oc1=O` (single isomer, unassigned) [Compound 24B*, (Sa)-N-(5-(5-amino-1H-pyrazol-1-yl)-1,3,4-thiadiazol-2-yl)-4-(2-cyano-6-methylphenyl)-3-(2-methoxyethoxy)-2-oxo-2H-pyran-6-carboxamide], the IC50 under setting [1] is < 0.5 nM.

As for `COc1cccc(Cl)c1-c1cc(C(=O)Nc2nnc(-n3nccc3N)s2)oc(=O)c1OCCO` (single isomer, unassigned) [Compound 34B*, (Ra)—N-(5-(5-amino-1H-pyrazol-1-yl)-1,3,4-thiadiazol-2-yl)-4-(2-chloro-6-methoxyphenyl)-3-(2-hydroxyethoxy)-2-oxo-2H-pyran-6-carboxamide], under setting [1], the IC50 was < 0.5 nM.

Regarding `COc1cccc(OC)c1-c1cc(C(=O)Nc2nnc(-n3nccc3N)s2)oc(=O)c1OC[C@@H]1COCCO1` (single isomer, unassigned) [Compound 43A*], the IC50 under setting [1] is 0.5 to 1 nM.

As for `COc1cccc(OC)c1-c1cc(C(=O)Nc2nnc(-n3nccc3N)s2)oc(=O)c1OC[C@H]1COCCO1` (single isomer, unassigned) [Compound 43B], the IC50 under setting [1] was 0.5 to 1 nM.

Turning to `COc1cccc(OC)c1-c1cc(C(=O)Nc2nnc(-n3nccc3N)s2)oc(=O)c1O[C@@H](C)CO` (single isomer, unassigned) [Compound 55A*], the IC50 under setting [1] fell in the range of 0.5 to 1 nM.

As to `COc1cccc(OC)c1-c1cc(C(=O)Nc2nnc(-n3nccc3N)s2)oc(=O)c1O[C@H](C)CO` (single isomer, unassigned) [Compound 55B*], the IC50 under setting [1] fell in the range of 0.5 to 1 nM.

As for `COc1cccc(OC)c1-c1cc(C(=O)Nc2nnc(-n3nccc3N)s2)oc(=O)c1OC1CC(O)C1` (single isomer, unassigned) [Compound 57A, N-(5-(5-amino-1H-pyrazol-1-yl)-1,3,4-thiadiazol-2-yl)-4-(2,6-dimethoxyphenyl)-3-((1,3-trans)-3-hydroxycyclobutoxy)-2-oxo-2H-pyran-6-carboxamide], the IC50 under setting [1] is 0.5 to 1 nM.

Consider `COc1cccc(OC)c1-c1cc(C(=O)Nc2nnc(-n3nccc3N)s2)oc(=O)c1OC1CC(O)C1` (single isomer, unassigned) [Compound 57B, N-(5-(5-amino-1H-pyrazol-1-yl)-1,3,4-thiadiazol-2-yl)-4-(2,6-dimethoxyphenyl)-3-((1,3-cis)-3-hydroxycyclobutoxy)-2-oxo-2H-pyran-6-carboxamide], for which, under setting [1], the IC50 was < 0.5 nM.

In the case of `COC[C@@H](O)COc1c(-c2c(OC)cccc2OC)cc(C(=O)Nc2nnc(-n3nccc3N)s2)oc1=O` (single isomer, unassigned) [Compound 63B*], under setting [1], the IC50 fell in the range of 0.5 to 1 nM.

In the case of `COc1cccc(OC)c1-c1cc(C(=O)Nc2nnc(-n3nccc3N)s2)oc(=O)c1OC[C@H](CO)OC` [38A*, (S)-N-(5-(5-amino-1H-pyrazol-1-yl)-1,3,4-thiadiazol-2-yl)-4-(2,6-dimethoxyphenyl)-3-(3-hydroxy-2-methoxypropoxy)-2-oxo-2H-pyran-6-carboxamide], the IC50 under setting [1] fell in the range of 0.5 to 1 nM.

For the compound `COc1cccc(OC)c1-c1cc(C(=O)Nc2nnc(-n3nccc3N)s2)oc(=O)c1OC[C@@H](CO)OC` [38B*, (R)-N-(5-(5-amino-1H-pyrazol-1-yl)-1,3,4-thiadiazol-2-yl)-4-(2,6-dimethoxyphenyl)-3-(3-hydroxy-2-methoxypropoxy)-2-oxo-2H-pyran-6-carboxamide], the IC50 under setting [1] fell in the range of 0.5 to 1 nM.
